From paper PMC4503694, “The Human Autoantibody Response to Apolipoprotein A-I Is Focused on the C-Terminal Helix: A New Rationale for Diagnosis and Treatment of Cardiovascular Disease?” (PLoS ONE, 2015)

Tests used:
[1] = test system: anti-ApoA-I antibodies in plasma samples from three different patients; test: Competition ELISA with plasma of three individual anti-ApoA-I-positive patients; assay type: binding, human; conditions: preincubated 2 h at room temperature with peptide, n = 3 (Fig 3)
Procedure: We next performed ELISA assays using plasma samples from three different anti-ApoA-I autoantibody-positive patients from the cohort pre-incubated with Peptide F, a scrambled version of Peptide F (Table 1), or the stapled peptide F3L1 prior to addition to wells coated with ApoA-I (Fig 3).
Plasma samples were preincubated (2 h, room temperature) with peptides at the indicated concentrations prior to addition to assay wells. Percent maximal ELISA signals were calculated as 100 × ([signal in well]-[mean background signal (uncoated well)])/ ([mean maximal signal (no peptide)]-[mean background signal]). Results are expressed as mean ± SD (n = 3).

RAW cells = test: Anti-ApoA-I IgG-induced TNF-α release in RAW mouse macrophage cell line; assay type: cell-based; conditions: anti-ApoA-I IgG 100 μg/ml preincubated 2 h with peptide 100 to 0.06 μg/ml; 24 h stimulation; ELISA; n = 3 (Fig 7)
Procedure: Raw cells were seeded in 96-well plates at 2 × 10^5 cells/well in DMEM culture medium (10% heat-inactivated FCS, 50 μg/ml streptomycin, 50 U/ml penicillin) for 24 h. Anti-Apo-A1 IgG (100 μg/ml) were incubated with peptides across a concentration range from 100 μg/ml to 0.06 μg/ml for 2 h at room temperature prior addition to cells. After 24 h stimulation, mouse TNF-α was quantified in the cell supernatants by ELISA according to manufacturer’s instructions (R&D system, MN).
Fig 7 Comparing the inhibitory potency of Peptide F and F3L1 on anti-ApoA-I IgG-induced TNF-α. Anti-ApoA-I IgG was incubated with the indicated peptide concentrations (preincubation 2 h at room temperature) prior to addition to cultured RAW cells. Levels of proinflammatory cytokines (TNF-α) were determined after 24 h culture. Mean levels (n = 3) are shown with error bars indicating the range.

[2] = test system: human monocyte-derived macrophages; test: Anti-ApoA-I IgG-mediated IL-6 and TNF-α release from human monocyte-derived macrophages; assay type: cell-based; conditions: peptide preincubated with anti-ApoA-I IgG 2 h at room temperature; highest concentration 1 mg/mL (Fig 5, 6)
Procedure: Human monocytes were isolated from buffy coats from healthy donors at the Geneva University Hospitals Blood Transfusion Center and differentiated into macrophages by 24 h incubation with IFN-γ (500 U/ml) in complete RPMI-1640 culture medium (10% heat-inactivated FCS, 50 μg/ml streptomycin, 50 U/ml penicillin, 2 mM L-glutamine), as previously described. Assays of anti-ApoA-I IgG-mediated release of IL-6 and TNF-α from human monocyte-derived macrophages was carried out as described previously using a previously determined optimal concentration of polyclonal goat anti-ApoA-I IgG (40 μg/ml). Endotoxin contamination in the assay was excluded using the limulus amebocyte lysate Endochrome assay. Where indicated, anti-ApoA-I IgG was pre-incubated with peptide […] (1 mg/mL) for 2 h at room temperature prior addition to the cells. Each experiment was performed on cells from […] different healthy blood donors. […] We next used a Luminex assay to measure the capacity of peptide […] to inhibit endotoxin-free anti-ApoA-I IgG-mediated proinflammatory cytokine release in human monocyte-derived macrophages (Fig 5a and 5b). As expected from previously published work, anti-ApoA-I IgG elicited a significant increase in production of both in IL-6 and TNF-α when compared to control IgG (Ctl IgG; p<0.0001 for both cytokines). […] We were unable to measure the inhibitory activity of intact purified and delipidated ApoA-I in this assay because traces of endotoxin elicit significant levels of background cytokine secretion (NV and SP, unpublished observations).  Fig 5 Peptide […] inhibits anti-ApoA-I IgG-mediated release of proinflammatory cytokines from cultured human monocyte-derived macrophages. Release of proinflammatory cytokines TNF-α (a) IL-6 (b) from human monocyte-derived macrophages induced by endotoxin-free goat polyclonal anti-ApoA-I IgG was determined with or without preincubation (2 h at room temperature) of the anti-ApoA-I IgG with peptide […] (1 mg/mL) and the corresponding scrambled peptide (Scr Pept). […] Anti-ApoA-I IgG was incubated with the indicated […] concentrations (preincubation 2 h at room temperature) prior to addition to cultured human monocyte-derived macrophages. Levels of proinflammatory cytokines were determined after 24 h culture. Experiments were repeated using cells from three different healthy donors, with results expressed as median, interquartile range (IQR) and range.

In the case of “KELYLLKFTVESKVGSTELPLNFSLA [F (scrambled), scrambled version of Peptide F, control peptide, reference compound]”, the “inhibition of binding of anti-ApoA-I IgG to immobilized ApoA-I” value [1] was “No inhibition was detectable”, the “inhibitory potency on anti-ApoA-I IgG-induced TNF-α” value (RAW cells) was “no detectable inhibitory activity” and the “inhibition of anti-ApoA-I IgG-induced TNF-α and IL-6 release” value [2] was “did not inhibit”.
